Data: ChEMBL document CHEMBL4837183, “Antiproliferative Bufadienolides from the Bulbs of Drimia altissima” (2021)

Assays:
Assay type in all cases: functional
[1] = system: LOX IMVI; test: Growth inhibition of human LOX IMVI cells measured after 48 hrs by SRB assay
[2] = system: 786-0; test: Growth inhibition of human 786-0 cells measured after 48 hrs by SRB assay
[3] = system: NCI-H460; test: Growth inhibition of human NCI-H460 cells measured after 48 hrs by SRB assay
[4] = system: MOLT-4; test: Growth inhibition of human MOLT-4 cells measured after 48 hrs by SRB assay
[5] = system: NCI-H522; test: Growth inhibition of human NCI-H522 cells measured after 48 hrs by SRB assay
[6] = system: SK-MEL-5; test: Growth inhibition of human SK-MEL-5 cells measured after 48 hrs by SRB assay
[7] = system: NCI-H322M; test: Growth inhibition of human NCI-H322M cells measured after 48 hrs by SRB assay
[8] = system: UO-31; test: Growth inhibition of human UO-31 cells measured after 48 hrs by SRB assay
[9] = system: OVCAR-3; test: Growth inhibition of human OVCAR-3 cells measured after 48 hrs by SRB assay
[10] = system: SK-MEL-28; test: Growth inhibition of human SK-MEL-28 cells measured after 48 hrs by SRB assay
[11] = system: CAKI-1; test: Growth inhibition of human CAKI-1 cells measured after 48 hrs by SRB assay
[12] = system: UACC-257; test: Growth inhibition of human UACC-257 cells measured after 48 hrs by SRB assay
[13] = system: TK-10; test: Growth inhibition of human TK-10 cells measured after 48 hrs by SRB assay
[14] = system: Hs-578T; test: Growth inhibition of human Hs-578T cells measured after 48 hrs by SRB assay
[15] = system: RXF 393; test: Growth inhibition of human RXF 393 cells measured after 48 hrs by SRB assay
[16] = system: CCRF-CEM; test: Growth inhibition of human CCRF-CEM cells measured after 48 hrs by SRB assay
[17] = system: OVCAR-5; test: Growth inhibition of human OVCAR-5 cells measured after 48 hrs by SRB assay
[18] = system: HCC 2998; test: Growth inhibition of human HCC 2998 cells measured after 48 hrs by SRB assay
[19] = system: MDA-MB-435; test: Growth inhibition of human MDA-MB-435 cells measured after 48 hrs by SRB assay
[20] = system: SF-295; test: Growth inhibition of human SF-295 cells measured after 48 hrs by SRB assay
[21] = system: ACHN; test: Growth inhibition of human ACHN cells measured after 48 hrs by SRB assay
[22] = system: DU-145; test: Growth inhibition of human DU-145 cells measured after 48 hrs by SRB assay
[23] = system: MDA-MB-468; test: Growth inhibition of human MDA-MB-468 cells measured after 48 hrs by SRB assay
[24] = system: SR; test: Growth inhibition of human SR cells measured after 48 hrs by SRB assay
[25] = system: HOP-92; test: Growth inhibition of human HOP-92 cells measured after 48 hrs by SRB assay
[26] = system: T47D; test: Growth inhibition of human T47D cells measured after 48 hrs by SRB assay
[27] = system: SK-OV-3; test: Growth inhibition of human SK-OV-3 cells measured after 48 hrs by SRB assay
[28] = system: HT-29; test: Growth inhibition of human HT-29 cells measured after 48 hrs by SRB assay
[29] = system: SN12C; test: Growth inhibition of human SN12C cells measured after 48 hrs by SRB assay
[30] = system: NCI-H23; test: Growth inhibition of human NCI-H23 cells measured after 48 hrs by SRB assay
[31] = system: HOP-62; test: Growth inhibition of human HOP-62 cells measured after 48 hrs by SRB assay
[32] = system: A549; test: Growth inhibition of human A549 cells measured after 48 hrs by SRB assay
[33] = system: SNB-19; test: Growth inhibition of human SNB-19 cells measured after 48 hrs by SRB assay
[34] = system: HCT-15; test: Growth inhibition of human HCT-15 cells measured after 48 hrs by SRB assay
[35] = system: SK-MEL-2; test: Growth inhibition of human SK-MEL-2 cells measured after 48 hrs by SRB assay
[36] = system: SW-620; test: Growth inhibition of human SW-620 cells measured after 48 hrs by SRB assay
[37] = system: NCI-H226; test: Growth inhibition of human NCI-H226 cells measured after 48 hrs by SRB assay
[38] = system: SF-539; test: Growth inhibition of human SF-539 cells measured after 48 hrs by SRB assay
[39] = system: PC-3; test: Growth inhibition of human PC-3 cells measured after 48 hrs by SRB assay
[40] = system: COLO 205; test: Growth inhibition of human COLO 205 cells measured after 48 hrs by SRB assay
[41] = system: M14; test: Growth inhibition of human M14 cells measured after 48 hrs by SRB assay
[42] = system: SF-268; test: Growth inhibition of human SF-268 cells measured after 48 hrs by SRB assay
[43] = system: HL-60; test: Growth inhibition of human HL-60 cells measured after 48 hrs by SRB assay
[44] = system: K562; test: Growth inhibition of human K562 cells measured after 48 hrs by SRB assay
[45] = system: SNB-75; test: Growth inhibition of human SNB-75 cells measured after 48 hrs by SRB assay
[46] = system: NCI/ADR-RES; test: Growth inhibition of human NCI/ADR-RES cells measured after 48 hrs by SRB assay
[47] = system: Malme-3M; test: Growth inhibition of human Malme-3M cells measured after 48 hrs by SRB assay
[48] = system: MCF7; test: Growth inhibition of human MCF7 cells measured after 48 hrs by SRB assay
[49] = system: OVCAR-8; test: Growth inhibition of human OVCAR-8 cells measured after 48 hrs by SRB assay
[50] = system: UACC-62; test: Growth inhibition of human UACC-62 cells measured after 48 hrs by SRB assay
[51] = system: A498; test: Growth inhibition of human A498 cells measured after 48 hrs by SRB assay
[52] = system: BT-549; test: Growth inhibition of human BT-549 cells measured after 48 hrs by SRB assay
[53] = system: MDA-MB-231; test: Growth inhibition of human MDA-MB-231 cells measured after 48 hrs by SRB assay
[54] = system: KM12; test: Growth inhibition of human KM12 cells measured after 48 hrs by SRB assay
[55] = system: U-251; test: Growth inhibition of human U-251 cells measured after 48 hrs by SRB assay
[56] = system: IGROV-1; test: Growth inhibition of human IGROV-1 cells measured after 48 hrs by SRB assay
[57] = system: HCT-116; test: Growth inhibition of human HCT-116 cells measured after 48 hrs by SRB assay

`C[C@]12CC[C@H](O[C@@H]3O[C@H](CO)[C@@H](O)[C@H](O)[C@H]3O)C=C1CC[C@@H]1[C@@H]2[C@@H](O)C[C@]2(C)[C@@H](c3ccc(=O)oc3)CC[C@]12O` gave a GI50 [1] of 0.064 µM, a GI50 [2] of 0.038 µM and a GI50 [3] of 0.013 µM. For the same compound, the GI50 [4] was 0.011 µM, the GI50 [5] was 0.009 µM and the GI50 [6] was 0.055 µM. It also gave a GI50 [7] of 0.03 µM, a GI50 [8] of 0.034 µM and a GI50 [9] of 0.036 µM. The GI50 [10] was 0.107 µM, the GI50 [11] was 0.041 µM and the GI50 [12] was 0.093 µM. For the same compound, the GI50 [13] was 0.031 µM, the GI50 [14] was 0.025 µM and the GI50 [15] was 0.02 µM. The GI50 [16] was 0.016 µM, the GI50 [17] was 0.06 µM and the GI50 [18] was 0.136 µM. It also gave a GI50 [19] of 0.073 µM, a GI50 [20] of 0.061 µM and a GI50 [21] of 0.01 µM. It also gave a GI50 [22] of 0.031 µM, a GI50 [23] of 0.109 µM and a GI50 [24] of 0.055 µM. It also gave a GI50 [25] of 0.066 µM, a GI50 [26] of 0.078 µM and a GI50 [27] of 0.074 µM. For the same compound, the GI50 [28] was 0.081 µM, the GI50 [29] was 0.015 µM and the GI50 [30] was 0.027 µM. The GI50 [31] was 0.026 µM, the GI50 [32] was 0.015 µM and the GI50 [33] was 0.108 µM. The GI50 [34] was 0.053 µM, the GI50 [35] was 0.059 µM and the GI50 [36] was 0.051 µM. The GI50 [37] was 0.047 µM, the GI50 [38] was 0.031 µM and the GI50 [39] was 0.046 µM. For the same compound, the GI50 [40] was 0.102 µM, the GI50 [41] was 0.083 µM and the GI50 [42] was 0.018 µM. The GI50 [43] was 0.05 µM, the GI50 [44] was 0.08 µM and the GI50 [45] was 0.082 µM. The GI50 [46] was 0.033 µM, the GI50 [47] was 0.063 µM and the GI50 [48] was 0.042 µM. It also gave a GI50 [49] of 0.065 µM, a GI50 [50] of 0.007 µM and a GI50 [51] of 0.038 µM. It also gave a GI50 [52] of 0.027 µM, a GI50 [53] of 0.193 µM and a GI50 [54] of 0.091 µM. For the same compound, the GI50 [55] was 0.079 µM, the GI50 [56] was 0.064 µM and the GI50 [57] was 0.015 µM.
